This is an account of results in patent publication US7109338B2, “1,2-disubstituted 1,4-dihydro-4-oxoquinoline compounds” (priority 1999, dated 2006).

The subject of data set [1] is coxsackievirus type A7 (CA7). As to the kind of experiment: In vitro anti-picornavirus activity (MTT), CA7. The settings on record: HeLa-S3 cells, MTT method, 37° C. Format: cell-based. On the technique in general: Tetrazolium assays rely on reduction of a dye to a coloured formazan, in cell work by metabolically active cells.
In the next data set the test system is HRV 89 (41617-Gallo). The experiment in a line: Anti-rhinovirus activity (MTT), HRV89. Conditions: HeLa (Ohio strain) cells, MTT method, 33° C. Format: cell-based, human rhinovirus.
Data set [2] deals with human rhinovirus type 1B (HRV 1B, B632). As to the kind of experiment: Anti-rhinovirus activity (MTT), HRV1B. Format: cell-based. The settings on record: HeLa (Ohio strain) cells, MTT method, 33° C.
A further data set has as its system HRV 2 (HGP). The experiment in a line: Anti-rhinovirus activity (MTT), HRV2. Format: cell-based, human rhinovirus. The settings on record: HeLa (Ohio strain) cells, MTT method, 33° C.
The next data set has as its system HeLa (Ohio strain)cells. As to the kind of experiment: Cytotoxicity (MTT, without virus), HeLa(Ohio). The settings on record: HeLa(Ohio), no virus, incubated for 4 days.
Data set [3] concerns coxsackievirus type B4 (CB4,JVB). The experiment in a line: In vitro anti-picornavirus activity (MTT), CB4. Format: cell-based. The settings on record: HeLa cells, MTT method, 37° C.
The subject of another data set is HeLa cells. The experiment in a line: Cytotoxicity (MTT, without virus), HeLa. Conditions: HeLa, no virus, incubated for 4 days.
For data set [4], the system named is echovirus type 11 (Echo 11, Gregory). The experiment in a line: In vitro anti-picornavirus activity (MTT), Echo 11. Conditions: HeLa-S3 cells, MTT method, 37° C. Format: cell-based.
For the next data set, the system named is HeLa-S3 cells. As to the kind of experiment: Cytotoxicity (MTT, without virus), HeLa-S3. Conditions: HeLa-S3, no virus, incubated for 4 days.
For data set [5], the system named is Poliovirus type 1 (Polio 1, Sabin). As to the kind of experiment: microbe, parasite or virus in culture. Format: cell-based.

≈ marks a conversion by molar mass, not a printed value.

`CCn1c(-c2ccccc2)c(C)c(=O)c2cc(N3CCOCC3)ccc21` [Compound A169]: in data set [1], the “IC50 CA7” value is above 50 µg/mL. For the same compound, in the data set with HRV 89 (41617-Gallo), the “IC50 HRV89” value came out at 5.4 µg/mL (≈ 15.5 µM). Besides, in [2], the “IC50 HRV1B” value was 8.2 µg/mL (≈ 23.5 µM). Further, the “IC50 HRV2” value in the data set on HRV 2 (HGP) turned out to be 1.0 µg/mL (≈ 2.87 µM). Further, the “Cytotoxicity CC50 HeLa(Ohio)” value with HeLa (Ohio strain)cells is above 50 µg/mL. Besides, in data set [3], the “IC50 CB4” value was 18 µg/mL (≈ 51.7 µM). For the same compound, the “Cytotoxicity CC50 HeLa” value in the data set with HeLa cells was above 50 µg/mL. Moreover, in [4], the “IC50 Echo 11” value is 1.1 µg/mL (≈ 3.16 µM). Further, the “Cytotoxicity CC50 HeLa-S3” value in the data set with HeLa-S3 cells was above 50 µg/mL. Besides, the “IC50 Polio 1” value in [5] came out at 4.3 µg/mL (≈ 12.3 µM).
`CCn1c(-c2ccccc2)c(C)c(=O)c2cc(-c3ccccc3)ccc21` [Compound A171]: the “IC50 CA7” value in data set [1] was 1.9 µg/mL (≈ 5.6 µM). In addition, the “IC50 HRV89” value in the data set with HRV 89 (41617-Gallo) amounted to 0.39 µg/mL (≈ 1.15 µM). The “IC50 HRV1B” value in data set [2] is 0.43 µg/mL (≈ 1.27 µM). Besides, the “IC50 HRV2” value in the data set on HRV 2 (HGP) was determined as 0.76 µg/mL (≈ 2.24 µM). In the data set with HeLa (Ohio strain)cells, the “Cytotoxicity CC50 HeLa(Ohio)” value was above 2.5 µg/mL. Moreover, the “IC50 CB4” value in data set [3] amounted to 2.0 µg/mL (≈ 5.89 µM). In the data set on HeLa cells, the “Cytotoxicity CC50 HeLa” value was above 2.5 µg/mL. Moreover, the “IC50 Echo 11” value in data set [4] is 0.22 µg/mL (≈ 0.648 µM). The “Cytotoxicity CC50 HeLa-S3” value in the data set on HeLa-S3 cells is above 2.5 µg/mL. Moreover, the “IC50 Polio 1” value in data set [5] stood at 0.52 µg/mL (≈ 1.53 µM).
For the compound `CCn1c(-c2ccccc2)c(C)c(=O)c2c(Cl)c(OCC(C)C)ccc21` [Compound A179], the “IC50 CA7” value in [1] is 2.4 µg/mL (≈ 6.49 µM). Further, the “IC50 HRV89” value in the data set on HRV 89 (41617-Gallo) stood at 0.37 µg/mL (≈ 1 µM). Further, the “IC50 HRV1B” value in data set [2] was 0.86 µg/mL (≈ 2.33 µM). The “IC50 HRV2” value in the data set with HRV 2 (HGP) stood at 0.87 µg/mL (≈ 2.35 µM). The “Cytotoxicity CC50 HeLa(Ohio)” value in the data set with HeLa (Ohio strain)cells is above 4 µg/mL. In data set [3], the “IC50 CB4” value was found to be 1.2 µg/mL (≈ 3.24 µM). Further, in the data set with HeLa cells, the “Cytotoxicity CC50 HeLa” value was above 4 µg/mL. Also, the “IC50 Echo 11” value in data set [4] is 0.20 µg/mL (≈ 0.541 µM). Moreover, the “Cytotoxicity CC50 HeLa-S3” value with HeLa-S3 cells is above 4 µg/mL. Besides, in data set [5], the “IC50 Polio 1” value amounted to 0.29 µg/mL (≈ 0.784 µM).
`CCn1c(-c2cccc(C)c2)c(C)c(=O)c2c(Cl)c(OCC(C)C)ccc21` [Compound A181]: the “IC50 CA7” value in [1] worked out at 2.4 µg/mL (≈ 6.25 µM). For the same compound, the “IC50 HRV89” value in the data set with HRV 89 (41617-Gallo) came to 0.46 µg/mL (≈ 1.2 µM). The “IC50 HRV1B” value in [2] was found to be 1.6 µg/mL (≈ 4.17 µM). Moreover, in the data set on HRV 2 (HGP), the “IC50 HRV2” value turned out to be 0.94 µg/mL (≈ 2.45 µM). In addition, the “Cytotoxicity CC50 HeLa(Ohio)” value in the data set on HeLa (Ohio strain)cells is above 2.5 µg/mL. In [3], the “IC50 CB4” value worked out at 1.8 µg/mL (≈ 4.69 µM). Further, the “Cytotoxicity CC50 HeLa” value in the data set on HeLa cells was above 2.5 µg/mL. Moreover, in data set [4], the “IC50 Echo 11” value is 0.24 µg/mL (≈ 0.625 µM). Moreover, the “Cytotoxicity CC50 HeLa-S3” value in the data set with HeLa-S3 cells is above 2.5 µg/mL. Besides, the “IC50 Polio 1” value in data set [5] came to 0.39 µg/mL (≈ 1.02 µM).
`Cc1c(OCC(C)C)ccc2c1c(=O)cc(-c1ccccc1)n2C` [Compound A186]: in [1], the “IC50 CA7” value is 3.0 µg/mL (≈ 9.33 µM). In the data set with HRV 89 (41617-Gallo), the “IC50 HRV89” value amounted to 0.26 µg/mL (≈ 0.809 µM). In addition, in data set [2], the “IC50 HRV1B” value amounted to 1.1 µg/mL (≈ 3.42 µM). In the data set on HRV 2 (HGP), the “IC50 HRV2” value was above 1.7 µg/mL. The “Cytotoxicity CC50 HeLa(Ohio)” value with HeLa (Ohio strain)cells is 5.0 µg/mL. Moreover, the “IC50 CB4” value in data set [3] came to 1.2 µg/mL (≈ 3.73 µM). In addition, the “Cytotoxicity CC50 HeLa” value with HeLa cells is above 5 µg/mL. In [4], the “IC50 Echo 11” value amounted to 0.27 µg/mL (≈ 0.84 µM). For the same compound, the “Cytotoxicity CC50 HeLa-S3” value with HeLa-S3 cells is above 5 µg/mL. Besides, the “IC50 Polio 1” value in data set [5] stood at 0.67 µg/mL (≈ 2.08 µM).
Regarding `CCn1c(-c2ccccc2)cc(=O)c2c(C)c(OCC(C)C)ccc21` [Compound A187], in [1], the “IC50 CA7” value was determined as 3.0 µg/mL (≈ 8.94 µM). For the same compound, the “IC50 HRV89” value in the data set with HRV 89 (41617-Gallo) turned out to be 0.15 µg/mL (≈ 0.447 µM). Also, the “IC50 HRV1B” value in data set [2] is 0.71 µg/mL (≈ 2.12 µM). Besides, the “IC50 HRV2” value in the data set with HRV 2 (HGP) worked out at 0.57 µg/mL (≈ 1.7 µM). Also, in the data set on HeLa (Ohio strain)cells, the “Cytotoxicity CC50 HeLa(Ohio)” value was above 4 µg/mL. Further, in data set [3], the “IC50 CB4” value amounted to 0.99 µg/mL (≈ 2.95 µM). For the same compound, in the data set with HeLa cells, the “Cytotoxicity CC50 HeLa” value was above 4 µg/mL. Also, the “IC50 Echo 11” value in data set [4] turned out to be 0.21 µg/mL (≈ 0.626 µM). In addition, the “Cytotoxicity CC50 HeLa-S3” value in the data set on HeLa-S3 cells is above 4 µg/mL. The “IC50 Polio 1” value in data set [5] was found to be 0.53 µg/mL (≈ 1.58 µM).
In the case of `CCn1c(-c2ccccc2)c(C)c(=O)c2c(C)c(OCC(C)C)ccc21` [Compound A188], in data set [1], the “IC50 CA7” value amounted to 1.2 µg/mL (≈ 3.43 µM). Also, the “IC50 HRV89” value with HRV 89 (41617-Gallo) was 0.25 µg/mL (≈ 0.715 µM). The “IC50 HRV1B” value in data set [2] stood at 0.81 µg/mL (≈ 2.32 µM). Further, the “IC50 HRV2” value in the data set with HRV 2 (HGP) is 0.33 µg/mL (≈ 0.944 µM). Further, the “Cytotoxicity CC50 HeLa(Ohio)” value in the data set on HeLa (Ohio strain)cells is above 5 µg/mL. Moreover, the “IC50 CB4” value in [3] was determined as 1.1 µg/mL (≈ 3.15 µM). The “Cytotoxicity CC50 HeLa” value with HeLa cells is above 5 µg/mL. Besides, the “IC50 Echo 11” value in [4] was determined as 0.27 µg/mL (≈ 0.773 µM). Besides, the “Cytotoxicity CC50 HeLa-S3” value in the data set with HeLa-S3 cells was above 5 µg/mL. In [5], the “IC50 Polio 1” value came out at 0.31 µg/mL (≈ 0.887 µM).
